Test results as given in patent publication US12624003B2, “Carboxylic acid containing indanyl compounds for the treatment of neurodegenerative diseases” (Celgene Corporation, priority 2020, dated 2026).

Biological target: T1, S1P5 (Homo sapiens, UniProt Q9H228)
T1 construct: expressed in transfected cells; host or cells: CHO cells (membranes)
Experiment: [35S]-GTPγS functional binding assay on CHO-S1P5 membranes
Type: biochemical
Conditions: membranes of CHO cells expressing recombinant S1P5 receptors; measure of S1P5 agonism
Procedure: CHO cells expressing recombinant S1P5 receptors were cultured in 500 cm^2 culture trays and, once confluent, rinsed and detached with cell-lifting buffer (10 mM HEPES, 154 mM NaCl, 6.85 mM EDTA, pH 7.4). Cells were then pelleted by centrifugation, resuspended, and homogenized in membrane preparation buffer (10 mM HEPES and 10 mM EDTA, pH 7.4) using a Polytron PT 1200E homogenizer (Kinematica, Luzern, Switzerland). Cellular proteins were pelleted by centrifugation at 48,000×g at 4° C. for 30 minutes. The resulting supernatant was discarded, and the pellet was re-suspended again in membrane preparation buffer, homogenized for a second time, and then centrifuged again as described above. The final cellular protein pellet was suspended in ice cold resuspension buffer (10 mM HEPES and 0.1 mM EDTA, pH 7.4), divided into aliquots, and stored at −80° C. until use.
Functional binding assays for [^35S]-GTPγS were performed in 96-well non-binding surface plates with a final volume of 200 μL. The test compounds were serially diluted in DMSO and added to assay plates using a Tecan D300E digital printer with a total volume of 0.4 μL. The control sphingosine-1-phosphate (S1P) was prepared separately by preparing a 400 μM stock solution from a 100 nmol pellet of SIP in 10 mM Na2CO3 with 2% s-cyclodextrin. The serial dilution of S1P was done using complete assay buffer (20 mM HEPES, 10 mM MgCl2, 100 mM NaCl, 1 mM EDTA, 0.1% fatty acid free bovine serum albumin (BSA), and 30 μg/mL saponin, pH 7.4) and transferred to wells already containing 0.4 μL DMSO. All the wells were then loaded to a total volume of 40 μL of complete assay buffer, except the non-specific binding (NSB) wells. For NSB wells, 40 μL/well of 50 μM GTPγS (Sigma Aldrich, cat #G8634, St. Louis, MO) was added to wells containing 0.4 μL of DMSO. The assay was started by the addition of 120 μL/well of CHO-S1P receptor membrane solution containing 40 μg/mL of membrane protein, 16.67 μM guanosine diphosphate (GDP; Sigma Aldrich, cat #G7127, St. Louis, MO), and 2.5 mg/mL of WGA PVT SPA beads in complete buffer. Assay plates were then sealed and incubated at room temperature with gentle agitation for 30 minutes. Next, 40 μL/well of 1 nM of [^35S]-GTPγS (PerkinElmer, cat #NEG030X250UC, Waltham, MA) in basic assay buffer (20 mM HEPES, 10 mM MgCl2, 100 mM NaCl, and 1 mM EDTA, pH 7.4) was added to the assay plates to yield a final concentration of […] and the plates were further incubated for 40 minutes at room temperature with gentle agitation. The assay was terminated by centrifugation of the plates at 1000 rpm for 3 minutes using an Eppendorf 5810R centrifuge (Eppendorf, Hamburg, Germany) and G protein bound radioactivity was quantitated using a MicroBeta2 microplate scintillation counter (PerkinElmer, Waltham, MA). As G protein bound radioactivity directly correlates to receptor activation and coupling to the G protein, this assay is a measure of S1P5 agonism.

T1 sequence (Q9H228 whole entry, species assumed): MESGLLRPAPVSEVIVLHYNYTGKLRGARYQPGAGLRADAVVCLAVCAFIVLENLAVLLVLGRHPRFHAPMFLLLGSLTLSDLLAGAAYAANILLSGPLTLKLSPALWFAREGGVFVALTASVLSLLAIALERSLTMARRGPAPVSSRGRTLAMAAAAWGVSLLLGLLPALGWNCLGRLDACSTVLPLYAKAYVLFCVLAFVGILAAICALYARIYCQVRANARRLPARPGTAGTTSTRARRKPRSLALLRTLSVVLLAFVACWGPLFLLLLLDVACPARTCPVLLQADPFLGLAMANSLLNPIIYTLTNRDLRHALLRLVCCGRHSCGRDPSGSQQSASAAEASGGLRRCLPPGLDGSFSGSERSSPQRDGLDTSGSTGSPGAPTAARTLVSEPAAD

| Compound | EC50 [nM] |
| --- | --- |
| O=C(O)C1(F)CCN(C2CCc3cc(C#Cc4c(Cl)cccc4Cl)ccc32)CC1 (single isomer, unassigned) [Compound 3a, 1-(5-((2,6-dichlorophenyl)ethynyl)-2,3-dihydro-1H-inden-1-yl)-4-fluoropiperidine-4-carboxylic acid] | ≤ 10 |
| O=C(O)C1(F)CCN(C2CCc3cc(C#Cc4c(Cl)cccc4Cl)ccc32)CC1 (single isomer, unassigned) [Compound 3b, 1-(5-((2,6-dichlorophenyl)ethynyl)-2,3-dihydro-1H-inden-1-yl)-4-fluoropiperidine-4-carboxylic acid] | ≤ 10 |
| O=C(O)C1CCN(C2CCc3cc(C#Cc4cccc(F)c4)ccc32)CC1 (single isomer, unassigned) [Compound 4a, 1-(5-((3-fluorophenyl)ethynyl)-2,3-dihydro-1H-inden-1-yl)piperidine-4-carboxylic acid] | 100 to 1000 |
| O=C(O)C1CCN(C2CCc3cc(C#Cc4cccc(F)c4)ccc32)CC1 (single isomer, unassigned) [Compound 4b, 1-(5-((3-fluorophenyl)ethynyl)-2,3-dihydro-1H-inden-1-yl)piperidine-4-carboxylic acid] | ≤ 10 |
| O=C(O)C1CCN(C2CCc3cc(C#Cc4ccccc4F)ccc32)CC1 (single isomer, unassigned) [Compound 6a, 1-(5-((2-fluorophenyl)ethynyl)-2,3-dihydro-1H-inden-1-yl)piperidine-4-carboxylic acid] | 10 to 100 |
| O=C(O)C1CCN(C2CCc3cc(C#Cc4ccccc4F)ccc32)CC1 (single isomer, unassigned) [Compound 6b, 1-(5-((2-fluorophenyl)ethynyl)-2,3-dihydro-1H-inden-1-yl)piperidine-4-carboxylic acid] | ≤ 10 |
| O=C(O)[C@@H]1CCCN(C2CCc3cc(C#Cc4cccc(F)c4)ccc32)C1 (single isomer, unassigned) [Compound 7a] | 10 to 100 |
| O=C(O)[C@@H]1CCCN(C2CCc3cc(C#Cc4cccc(F)c4)ccc32)C1 (single isomer, unassigned) [Compound 7b] | 100 to 1000 |
| O=C(O)[C@@H]1CCCCN1C1CCc2cc(C#Cc3cccc(F)c3)ccc21 (single isomer, unassigned) [Compound 8a] | 100 to 1000 |
| O=C(O)[C@@H]1CCCCN1C1CCc2cc(C#Cc3cccc(F)c3)ccc21 (single isomer, unassigned) [Compound 8b] | 1000 to 10000 |
| O=C(O)[C@H]1CCCCN1C1CCc2cc(C#Cc3cccc(F)c3)ccc21 (single isomer, unassigned) [Compound 9a] | 1000 to 10000 |
| O=C(O)[C@H]1CCCCN1C1CCc2cc(C#Cc3cccc(F)c3)ccc21 (single isomer, unassigned) [Compound 9b] | 1000 to 10000 |
| O=C(O)[C@H]1CCN(C2CCc3cc(C#Cc4cccc(F)c4)ccc32)C1 (single isomer, unassigned) [Compound 13a] | 10 to 100 |
| O=C(O)[C@H]1CCN(C2CCc3cc(C#Cc4cccc(F)c4)ccc32)C1 (single isomer, unassigned) [Compound 13b] | 10 to 100 |
| O=C(O)[C@@H]1CCN(C2CCc3cc(C#Cc4cccc(F)c4)ccc32)C1 (single isomer, unassigned) [Compound 14a] | ≤ 10 |
| O=C(O)[C@@H]1CCN(C2CCc3cc(C#Cc4cccc(F)c4)ccc32)C1 (single isomer, unassigned) [Compound 14b] | ≤ 10 |
| O=C(O)C1CN(C2CCc3cc(C#Cc4c(Cl)cccc4Cl)ccc32)C1 (single isomer, unassigned) [Compound 18, 1-(5-((2,6-dichlorophenyl)ethynyl)-2,3-dihydro-1H-inden-1-yl)azetidine-3-carboxylic acid] | ≤ 10 |
| O=C(O)C1CN(C2CCc3cc(C#Cc4cccc(F)c4)ccc32)C1 (single isomer, unassigned) [Compound 19, 1-(5-((3-fluorophenyl)ethynyl)-2,3-dihydro-1H-inden-1-yl)azetidine-3-carboxylic acid] | ≤ 10 |
| O=C(O)C1CN(C2CCc3cc(C#Cc4cc(F)ccc4F)ccc32)C1 (single isomer, unassigned) [Compound 20, 1-(5-((2,5-difluorophenyl)ethynyl)-2,3-dihydro-1H-inden-1-yl)azetidine-3-carboxylic acid] | ≤ 10 |
| O=C(O)C1CCN(C2CCc3cc(CCc4c(Cl)cccc4Cl)ccc32)CC1 (single isomer, unassigned) [Compound 22a, 1-(5-(2,6-dichlorophenethyl)-2,3-dihydro-1H-inden-1-yl)piperidine-4-carboxylic acid] | ≤ 10 |
| O=C(O)C1CCN(C2CCc3cc(CCc4c(Cl)cccc4Cl)ccc32)CC1 (single isomer, unassigned) [Compound 22b, 1-(5-(2,6-dichlorophenethyl)-2,3-dihydro-1H-inden-1-yl)piperidine-4-carboxylic acid] | ≤ 10 |
| O=C(Cc1c(Cl)cccc1Cl)c1ccc2c(c1)CCC2N1CCC(C(=O)O)CC1 (single isomer, unassigned) [Compound 23, 1-(5-(2-(2,6-dichlorophenyl)acetyl)-2,3-dihydro-1H-inden-1-yl)piperidine-4-carboxylic acid] | 10 to 100 |
| O=C(Cc1ccc2c(c1)CCC2N1CCC(C(=O)O)CC1)c1c(Cl)cccc1Cl (single isomer, unassigned) [Compound 24, 1-(5-(2-(2,6-dichlorophenyl)-2-oxoethyl)-2,3-dihydro-1H-inden-1-yl)piperidine-4-carboxylic acid] | 10 to 100 |
| O=C(O)C1CCN(C2CCc3cc(CCc4ccccc4Cl)ccc32)CC1 (single isomer, unassigned) [Compound 25a, 1-(5-(2-chlorophenethyl)-2,3-dihydro-1H-inden-1-yl)piperidine-4-carboxylic acid] | 10 to 100 |
| O=C(O)C1CCN(C2CCc3cc(CCc4ccccc4Cl)ccc32)CC1 (single isomer, unassigned) [Compound 25b, 1-(5-(2-chlorophenethyl)-2,3-dihydro-1H-inden-1-yl)piperidine-4-carboxylic acid] | 100 to 1000 |
| O=C(O)C1CCN(C2CCc3cc(CCc4cccc(F)c4)ccc32)CC1 (single isomer, unassigned) [Compound 26a, 1-(5-(3-fluorophenethyl)-2,3-dihydro-1H-inden-1-yl)piperidine-4-carboxylic acid] | 100 to 1000 |
| O=C(O)C1CCN(C2CCc3cc(CCc4cccc(F)c4)ccc32)CC1 (single isomer, unassigned) [Compound 26b, 1-(5-(3-fluorophenethyl)-2,3-dihydro-1H-inden-1-yl)piperidine-4-carboxylic acid] | 10 to 100 |
| O=C(O)C1CCN(C2CCc3cc(CCc4cccc(Cl)c4)ccc32)CC1 (single isomer, unassigned) [Compound 27a, 1-(5-(3-chlorophenethyl)-2,3-dihydro-1H-inden-1-yl)piperidine-4-carboxylic acid] | ≤ 10 |
| O=C(O)C1CCN(C2CCc3cc(CCc4cccc(Cl)c4)ccc32)CC1 (single isomer, unassigned) [Compound 27b, 1-(5-(3-chlorophenethyl)-2,3-dihydro-1H-inden-1-yl)piperidine-4-carboxylic acid] | 100 to 1000 |
| O=C(O)C1CCN(C2CCc3cc(CCc4c(F)cccc4F)ccc32)CC1 (single isomer, unassigned) [Compound 28a, 1-(5-(2,6-difluorophenethyl)-2,3-dihydro-1H-inden-1-yl)piperidine-4-carboxylic acid] | 100 to 1000 |
